Test results from patent US7915237B2, “Production of pure stereoisomers of tricyclo[5.2.1.02.6]-dec-9-yl-xanthogenate and medicaments therefrom” (Lumavita AG, priority 2001, dated 2011).

Assays:
Herpes simplex virus 1 [1] = assay: Inhibition of Herpes proliferation by measuring the cytopathogenic effect; format: cell-based, Herpes simplex virus 1 in monkey kidney cells (Rita strain); conditions: 50 PFU HSV-1, pH 6.8, microscopy after 6 days
Protocol: The inhibition of the proliferation of Herpes by exo/exo-tricyclo[5.2.1.0^2.6]dec-9-yl-xanthogenate was determined by measuring the cytopathogenic effect. For this purpose, monkey kidneys cells (Rita strain) were seeded on Linbro plates. After 24 hours, 50 plaque-forming units of Herpes simplex virus 1 were added to each culture. After allowing for adsorption for one hour, fresh culture medium adjusted to pH 6.8 was added. Four cultures each were treated either with the pure exo/exo isomer or a mixture of isomers containing 83% of the exo/exo isomer using the following concentrations: 0, 5, 10, 15 or 20 μg/ml. The cultures were analyzed by microscopy after 6 days. Untreated cultures were completely lysed as a result of virus proliferation (cytopathogenic effect).

Herpes simplex virus 1 [2] = assay: Inhibition of Herpes proliferation by measuring viral proliferation (plaque assay of supernatants); format: cell-based, Herpes simplex virus 1 in monkey kidney cells (Rita strain)
Protocol: The inhibition of the proliferation of Herpes by exo/exotricyclo[5.2.1.0^2.6]dec-9-yl-xanthogenate was determined by measuring viral proliferation. For this purpose, monkey kidneys cells (Rita strain) were seeded on Linbro plates. After 24 hours, 100 plaque-forming units of Herpes simplex virus 1 were added to each culture. After allowing for adsorption for one hour, fresh culture medium adjusted to pH 6.8 was added. Four cultures each were treated either with the pure exo/exo isomer or a mixture of isomers containing 83% of the exo/exo isomer using the following concentrations: 0, 5, 10 or 15 μg/ml. The virus concentrations in the supernatants of the cultures were determined after four days by means of plaque assays. The curves were used to determine the concentration at which viral proliferation was inhibited by 50% (IC50). An IC50 of 0.6 μg/ml was found for the exo/exo isomer. […] This means that the pure exo/exo isomer effected a 50% reduction of viral proliferation at a more than 10-fold lower concentration as compared to the mixture of isomers.

S=C(S)OC1CC2CC1C1CCCC21 (single isomer, unassigned) [exo/exo isomer, exo/exo-tricyclo[5.2.1.0^2.6]dec-9-yl-xanthogenate]
cytopathogenic effect in treated cultures (Herpes simplex virus 1 [1]; 5, 10, 15 or 20 μg/ml): no evidence of a cytopathogenic effect
concentration at which proliferation of the virus was completely suppressed (no cytopathogenic effect) (Herpes simplex virus 1 [1]; tested 5-20 μg/ml): ≤ 5 µg/mL
concentration at which viral proliferation was inhibited by 50% (IC50) (Herpes simplex virus 1 [2]; 100 PFU HSV-1, pH 6.8, virus in supernatant after four days, from dose-response curve): 0.6 µg/mL
fold lower concentration for 50% reduction of viral proliferation as compared to the mixture of isomers (Herpes simplex virus 1 [2]; IC50 ratio versus mixture containing 83% exo/exo isomer): more than 10 fold
fold stronger antiviral effect than the mixture of isomers (Herpes simplex virus 1 [2]; summary statement, versus mixture of 83% exo/exo and 17% other isomers): 4-10 fold
